# How the values were obtained:
# Spodoptera litura = experiment: Insecticidal activity against second-instar larval stage of Spodoptera litura fed with artificial diet containing compound assessed as growth inhibition after 7 days; format: functional, organism-based; conditions: for EC50: 168 h
# Helicoverpa armigera = experiment: Insecticidal activity against second-instar larval stage of Helicoverpa armigera fed with artificial diet containing compound assessed as growth inhibition after 7 days; format: functional, organism-based; conditions: for EC50: 168 h
Compound,growth inhibition (GI) (Spodoptera litura),EC50 (Spodoptera litura) [µg/mL],growth inhibition (GI) (Helicoverpa armigera),EC50 (Helicoverpa armigera) [µg/mL]
CC(C)C(=O)OC1CCC(OC2CCC(OC(=O)C(C)C)CC2)CC1 (stereo unspecified) [4-(4-O-ISOBUTANOYLCYCLOHEXYLOXY)-CYCLOHEXYL ISOBUTANOATE],Dose-dependent effect,7860,Dose-dependent effect,8110
CCCCC(=O)OCC(C)OC(=O)CCCC (stereo unspecified),Dose-dependent effect,4240,Dose-dependent effect,5540
CC(C)C(=O)OCCOCCOC(=O)C(C)C [DIETHYLENE GLYCOL DIISOBUTANOATE],Dose-dependent effect,5120,Dose-dependent effect,6450
CCCCC(=O)OCCOCCOC(=O)CCCC [DIETHYLENE GLYCOL DIPENTANOATE],Dose-dependent effect,1880,Dose-dependent effect,3870
CCCCCC(=O)OCC(C)OC(=O)CCCCC (stereo unspecified),Dose-dependent effect,3810,Dose-dependent effect,5260
CCCCCCCC(=O)OCCOCCOC(=O)CCCCCCC [DIETHYLENE GLYCOL DIOCTANOATE],Dose-dependent effect,1540,Dose-dependent effect,2880
CCCCCC(=O)OCCOCCOC(=O)CCCCC [DIETHYLENE GLYCOL DIHEXANOATE],Dose-dependent effect,1940,Dose-dependent effect,3900
CCCC(CC)C(=O)OCC(C)OC(=O)C(CC)CCC (stereo unspecified),Dose-dependent effect,3760,Dose-dependent effect,4860
"CC(C)C(=O)OCCCCCOC(=O)C(C)C [PENTANE-1,5-DI-ISOBUTANOATE]",Dose-dependent effect,7660,Dose-dependent effect,7580
CCCCCCCC(=O)OCC(C)COC(=O)CCCCCCC,Dose-dependent effect,6210,Dose-dependent effect,4540
CCCC(=O)OCC(C)COC(=O)CCC,Dose-dependent effect,4360,Dose-dependent effect,4230
CCCC(=O)OCCOCCOC(=O)CCC [DIETHYLENE GLYCOL DIBUTANOATE],Dose-dependent effect,1760,Dose-dependent effect,2890
CC(COC(=O)C(C)C)COC(=O)C(C)C,Dose-dependent effect,7540,Dose-dependent effect,8170
CCCC(=O)OC1CCC(OC2CCC(OC(=O)CCC)CC2)CC1 (stereo unspecified) [4-(4-O-BUTANOYLCYCLOHEXYLOXY)-CYCLOHEXYL BUTANOATE],Dose-dependent effect,6120,Dose-dependent effect,7230
